Measured values: ChEMBL document CHEMBL5370529, “Perspectives on the current antiviral developments towards RNA-dependent RNA polymerase (RdRp) and methyltransferase (MTase) domains of dengue virus non-structural protein 5 (DENV-NS5)” (Eur J Med Chem, 2023)
In brackets after ≈: the same amount, converted by molar mass.

Legend:
[1] = Cytotoxicity against hamster BHK-21 cells assessed as reduction in cell viability measured after 42 hrs by MTT assay; format: toxicity, cell-based, Mesocricetus auratus
[2] = Inhibition of West Nile virus recombinant N-terminal NS5-methyltransferase
[3] = Inhibition of DENV RNA-dependent RNA polymerase activity; design: species or system Dengue virus
[4] = Cytotoxicity against hamster BHK-21 cells assessed as reduction in cell viability measured after 48 hrs by Cell-titer glo luminescent assay; format: toxicity, cell-based, Mesocricetus auratus
PBMC = assay: Cytotoxicity against human PBMC cells assessed as reduction in cell viability measured after 48 hrs by Cell-titer glo luminescent assay; format: functional
A549 [5] = assay: Cytotoxicity against human A549 cells assessed as reduction in cell viability measured after 48 hrs by Cell-titer glo luminescent assay; format: functional
Huh-7 [6] = assay: Cytotoxicity against human Huh-7 cells assessed as reduction in cell viability measured after 48 hrs by Cell-titer glo luminescent assay; format: functional
[7] = Inhibition of Dengue virus RNA-dependent RNA polymerase in human Huh-7 cells; format: cell-based
[8] = Cytotoxicity against African green monkey Vero cells assessed as reduction in cell viability measured after 72 hrs by MTT assay; format: toxicity, cell-based; conditions: chlorocebus sabaeus
dengue virus type 2 = assay: Antiviral activity against Dengue virus 2 infected in African green monkey Vero cells assessed as suppression of viral replication; format: functional, organism-based
Nonstructural protein 5 [9] = target: T1, Nonstructural protein 5 (Dengue virus, UniProt V5TFZ2); assay: Inhibition of DENV His-tagged recombinant NS5/RNA-dependent RNA polymerase
[10] = Inhibition of DENV-2 NS5 polymerase incubated for 1 hr by fluorescence based analysis; design: species or system dengue virus type 2
[11] = Inhibition of DENV3 N-terminal 6-His-tagged RNA-dependent RNA polymerase expressed in Escherichia coli BL21; design: species or system dengue virus type 3
[12] = Cytotoxicity against African green monkey Vero E6 cells assessed as reduction in cell viability measured after 96 hrs by MTT assay; format: toxicity, cell-based; conditions: chlorocebus sabaeus, Vero E6 (Vero C1008) cells
[13] = Inhibition of DENV-4 full length NS5/RNA-dependent RNA polymerase; design: species or system dengue virus type 4
[14] = Inhibition of DENV-3 RNA-dependent RNA polymerase expressed in Escherichia coli; design: species or system dengue virus type 3
[15] = Cytotoxicity against African green monkey Vero cells assessed as reduction in cell viability measured after 3 to 5 days by Cell titer-glo luminescent assay; format: toxicity, cell-based; conditions: chlorocebus sabaeus, time 3-5 day
[16] = Cytotoxicity against hamster BHK-21 cells assessed as reduction in cell viability measured after 24 hrs by MTT assay; format: toxicity, cell-based, Mesocricetus auratus
[17] = Cytotoxicity against asian tiger mosquito C6/36 cells assessed as reduction in cell viability measured after 24 hrs by MTT assay; format: toxicity, cell-based; conditions: aedes albopictus
[18] = Inhibition of DENV-2 full length His-tagged RNA-dependent RNA polymerase expressed in Escherichia coli Rosetta cells BL21 (DE3) cells incubated for 2 hrs; design: species or system dengue virus type 2
Huh-7 [19] = assay: Cytotoxicity against human Huh-7 cells assessed as reduction in cell viability measured after 48 hrs by MTT assay; format: functional
[20] = Cytotoxicity against human HEK293T cells assessed as reduction in cell viability measured after 48 hrs by MTT assay; format: toxicity, cell-based, HEK-293T
[21] = Inhibition of DENV RNA N7 methyltransferase; design: species or system Dengue virus
A549 [22] = assay: Cytotoxicity against human A549 cells assessed as reduction in cell viability measured after 48 hrs by MTT assay; format: functional
[23] = Cytotoxicity against hamster BHK-21 cells assessed as cell growth inhibition measured after 48 hrs by MTT assay; format: toxicity, cell-based, Mesocricetus auratus
[24] = Cytotoxicity against monkey LLC-MK2 cells assessed as reduction in cell viability measured after 48 hrs by MTT assay; format: toxicity, cell-based, Macaca mulatta; conditions: rhesus monkey
Nonstructural protein 5 [25] = target: T1, Nonstructural protein 5; assay: Inhibition of DENV/NS5 RNA-dependent RNA polymerase
Huh-7 [26] = assay: Cytotoxicity against human Huh-7 cells assessed as reduction in cell viability measured after 48 hrs by Celltiter-glo assay; format: functional
[27] = Inhibition of DENV-4 full length NS5/RNA-dependent RNA polymerase in Huh-7 cells; format: cell-based, dengue virus type 4
Nonstructural protein 5 [28] = target: T1, Nonstructural protein 5; assay: Inhibition of DENV C-terminal histidine-tagged NS5/RNA-dependent RNA polymerase
[29] = Inhibition of Dengue virus 3 nucleoside-2'O-methyltransferase; design: species or system dengue virus type 3
Huh-7 [30] = assay: Cytotoxicity against human Huh-7 cells assessed as reduction in cell viability measured after 24 hrs by viral-Tox-glo assay; format: functional
Nonstructural protein 5 [31] = target: T1, Nonstructural protein 5; assay: Inhibition of Dengue virus NS5/RNA-dependent RNA polymerase

T1 sequence (V5TFZ2 whole entry): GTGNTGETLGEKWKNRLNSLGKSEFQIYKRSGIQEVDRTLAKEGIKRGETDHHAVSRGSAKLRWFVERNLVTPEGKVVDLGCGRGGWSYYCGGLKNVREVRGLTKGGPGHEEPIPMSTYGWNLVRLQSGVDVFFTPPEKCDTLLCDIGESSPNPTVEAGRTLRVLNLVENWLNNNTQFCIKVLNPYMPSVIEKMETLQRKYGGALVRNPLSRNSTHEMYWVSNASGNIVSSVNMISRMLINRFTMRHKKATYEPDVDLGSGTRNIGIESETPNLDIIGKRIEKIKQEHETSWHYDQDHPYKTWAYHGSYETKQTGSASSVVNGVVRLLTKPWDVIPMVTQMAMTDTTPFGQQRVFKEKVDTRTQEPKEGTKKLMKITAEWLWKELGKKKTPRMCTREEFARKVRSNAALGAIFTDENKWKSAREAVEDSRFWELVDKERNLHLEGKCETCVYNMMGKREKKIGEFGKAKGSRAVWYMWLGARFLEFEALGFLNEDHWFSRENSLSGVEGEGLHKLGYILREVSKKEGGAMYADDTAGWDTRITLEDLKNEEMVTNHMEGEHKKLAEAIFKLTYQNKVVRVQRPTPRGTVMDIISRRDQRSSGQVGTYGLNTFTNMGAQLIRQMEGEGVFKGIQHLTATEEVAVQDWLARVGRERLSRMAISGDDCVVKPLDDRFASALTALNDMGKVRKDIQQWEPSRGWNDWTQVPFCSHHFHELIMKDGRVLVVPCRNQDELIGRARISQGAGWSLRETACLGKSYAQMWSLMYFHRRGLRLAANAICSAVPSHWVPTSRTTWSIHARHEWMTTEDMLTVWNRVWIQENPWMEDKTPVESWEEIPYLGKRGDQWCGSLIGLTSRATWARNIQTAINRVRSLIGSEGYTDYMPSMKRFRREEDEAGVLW

With `CC1=C(Nc2c(C)cc(O)cc2O)C(=O)C=c2oc3c(c21)C(C)=C(Nc1c(C)cc(O)cc1O)C(=O)C=3` the CC50 at 42 h [1] was 117 µM and the IC50 [2] was 5.6 µM.
`C#C[C@@]1(O)[C@H](OC(=O)C(C)C)[C@@H](COC(=O)C(C)C)O[C@H]1n1cc(C(N)=O)c2c(N)ncnc21` showed an IC50 [3] of 0.1 µM.
Compound `C#C[C@@]1(O)[C@H](O)[C@@H](CO)O[C@H]1n1ccc2c(N)ncnc21` has a CC50 at 48 h [4] of over 100 µM, a CC50 (PBMC) of over 100 µM and a CC50 (A549 [5]) of over 100 µM. For the same compound, the CC50 (Huh-7 [6]) was over 100 µM and the IC50 [7] was 0.31 µM.
`CC(C)(O)[C@@H]1CC[C@](C)([C@H]2[C@@H](O)C[C@@]3(C)[C@@H]4C[C@H](O[C@@H]5O[C@H](CO)[C@@H](O)[C@H](O)[C@H]5O)[C@H]5C(C)(C)[C@@H](O[C@@H]6OC[C@@H](O)[C@H](O)[C@H]6O)CC[C@@]56C[C@@]46CC[C@]23C)O1` gave a CC50 at 72 h [8] of over 1000 µg/mL and an EC50 (dengue virus type 2) of 1.56 µg/mL (≈ 1.99 µM).
With `CC(=O)O[C@H]1[C@H](O[C@H]2CC[C@]34C[C@]35CC[C@]3(C)[C@@H]([C@@]6(C)CC[C@@H](C(C)(C)O)O6)[C@@H](O)C[C@@]3(C)[C@@H]5C[C@H](O[C@@H]3O[C@H](CO)[C@@H](O)[C@H](O)[C@H]3O)[C@H]4C2(C)C)OC[C@@H](O)[C@@H]1O` the CC50 at 72 h [8] was over 1000 µg/mL and the EC50 (dengue virus type 2) was 1.56 µg/mL (≈ 1.89 µM).
With `Nc1cc(C(F)(F)F)ccc1NC(=O)Nc1cccc(S(=O)(=O)Nc2ccc(C(=O)O)cc2)c1` the IC50 (Nonstructural protein 5 [9]) was 150 µM.
Compound `Nc1cc(C(F)(F)F)ccc1NC(=O)Nc1ccc(S(=O)(=O)Nc2ccc(C(=O)O)cc2)cc1` has an IC50 (Nonstructural protein 5 [9]) of 150 µM.
For `COc1cc(C)c(C(=O)NS(=O)(=O)c2cccc3cccnc23)cc1-c1ccc(C#CCO)s1`, the IC50 [10] was 1.9 µM.
Compound `O=C(N[C@@H](Cc1ccc(O)cc1)C(=O)O)c1cc(-c2ccccc2)c(=O)n2c1sc1ccc(OC3CCCCC3)cc12` has an IC50 [11] of 1.5 µM and a CC50 at 96 h [12] of over 100 µM.
`CC(=O)Oc1ccc2oc(=O)sc2c1` showed an IC50 [13] of 445 µM, an IC50 [14] of 287 µM and a CC50 [15] of 50 µM.
Compound `Cc1ccc(C2N(c3ccccc3)CC3=C(CC(C)(C)CC3=O)N2c2ccccc2)cc1` (stereo not given) has a CC50 at 24 h [16] of 10 µM.
In the case of `C=C1CC[C@@H]2[C@]3(C)COC(C)(C)O[C@@H]3CC[C@@]2(C)[C@@H]1C/C=C1/C(=O)OC[C@@H]1Oc1c(Cl)cc(Cl)c2ccc(C)nc12`, the CC50 at 24 h [17] is reported as 15.6 µg/mL (≈ 26 µM).
With `O=C1[C@@H]2Cc3ccccc3N2[C@@H](c2ccc(O)c(O)c2)N1Nc1ccc([N+](=O)[O-])cc1` the IC50 [18] was 2.3 µM.
Work on `CCC(/C(C)=C/c1cc(OC)c(OC)cc1OC)c1cc(OC)c(OC)cc1OC` (stereo not given) yielded a CC50 (Huh-7 [19]) of over 80 µM, a CC50 at 48 h [20] of over 80 µM and an IC50 [21] of 4.5 µM. It also gave a CC50 (A549 [22]) of over 80 µM and a CC50 at 48 h [23] of over 80 µM.
Compound `O=C1[C@@H]2Cc3ccccc3N2[C@@H](c2ccco2)N1Nc1ccccc1` has an IC50 [18] of 2.1 µM.
With `CC(C)(O)[C@H]1CC[C@@](C)([C@H]2[C@@H](O)C[C@]3(C)[C@H]4C[C@@H](O)[C@H]5C(C)(C)[C@H](O[C@H]6OC[C@H](O)[C@@H](O)[C@@H]6O[C@H]6O[C@@H](CO)[C@H](O)[C@@H](O)[C@@H]6O)CC[C@]56C[C@]46CC[C@@]23C)O1` the CC50 at 72 h [8] was over 1000 µg/mL and the EC50 (dengue virus type 2) was 1.56 µg/mL (≈ 1.99 µM).
Compound `CC(=O)N[C@@H](C(=O)O)C(C)(C)SN=O` has an IC50 (Nonstructural protein 5 [9]) of 150 µM and a CC50 at 48 h [24] of 200 µM.
In the case of `C=C1CC[C@@H]2[C@](C)(CO)[C@H](O)CC[C@@]2(C)[C@@H]1C/C=C1/C(=O)OC[C@H]1O` [ANDROGRAPHOLIDE], the CC50 at 24 h [17] is reported as 15.6 µg/mL (≈ 44.6 µM).
`O=c1c(O[C@@H]2O[C@@H](CO)[C@H](O)[C@H]2O)c(-c2ccc(O)c(O)c2)oc2cc(O)cc(O)c12` [AVICULARIN] gave an IC50 (Nonstructural protein 5 [25]) of 1.7 µM.
Work on `CC1=C(/C=C/C(C)=C/C=C/C(C)=C/C(=O)Nc2ccc(O)cc2)C(C)(C)CCC1` [FENRETINIDE] yielded a CC50 (Huh-7 [26]) of at most 10 µM and an IC50 [27] of 5 µM.
`O=c1cc(-c2ccc(Oc3c(O)cc4oc(-c5ccc(O)cc5)cc(=O)c4c3O)cc2)oc2cc(O)cc(O)c12` [HINOKIFLAVONE] gave an IC50 (Nonstructural protein 5 [28]) of 0.26 µM.
For `C[C@@H]1O[C@@H](Oc2c(-c3ccc(O)c(O)c3)oc3cc(O)cc(O)c3c2=O)[C@H](O)[C@H](O)[C@H]1O` [QUERCITRIN], the IC50 (Nonstructural protein 5 [25]) was 2.1 µM.
Compound `O=c1cc(-c2ccc(O)c(-c3c(O)cc4oc(-c5ccc(O)cc5)cc(=O)c4c3O)c2)oc2cc(O)cc(O)c12` [ROBUSTAFLAVONE] has an IC50 (Nonstructural protein 5 [28]) of 0.33 µM.
Compound `NC(=O)c1ncn([C@@H]2O[C@H](COP(=O)(O)OP(=O)(O)OP(=O)(O)O)[C@@H](O)[C@H]2O)n1` [RTP] has an IC50 [29] of 100 µM.
With `C[C@@H]1O[C@@H](OC[C@H]2O[C@@H](Oc3c(-c4ccc(O)c(O)c4)oc4cc(O)cc(O)c4c3=O)[C@H](O)[C@@H](O)[C@@H]2O)[C@H](O)[C@H](O)[C@H]1O` [RUTIN] the IC50 (Nonstructural protein 5 [25]) was 2.1 µM.
For `CC(C)OC(=O)[C@H](C)N[P@](=O)(OC[C@H]1O[C@@H](n2ccc(=O)[nH]c2=O)[C@](C)(F)[C@@H]1O)Oc1ccccc1` [SOFOSBUVIR], the CC50 (Huh-7 [30]) was over 100 µM and the IC50 (Nonstructural protein 5 [31]) was 14.7 µM.
`O=c1c(O)c(-c2ccc(O[C@@H]3O[C@H](CO)[C@@H](O)[C@H](O)[C@H]3O)c(O)c2)oc2cc(O)cc(O)c12` [SPIRAEOSIDE] showed an IC50 (Nonstructural protein 5 [25]) of 1.9 µM.
